Laboratory results reported in US20240226049A1, “METHODS OF TREATMENT USING BEMPEDOIC ACID” (Esperion Therapeutics, Inc., priority 2023, published 2024).

How the values were obtained:
[1] = test system: statin-intolerant patients with or at high risk of CVD; test: CLEAR OUTCOMES trial (Example 1): adverse events and safety laboratory findings; type: in vivo, human
Description: (§1) The CLEAR OUTCOMES trial was a randomized, placebo-controlled, double-blind trial that enrolled patients at 1250 sites in 32 countries. An independent Data Monitoring Committee reviewed safety and efficacy data during the trial.
(§2) Patients 18 to 85 years of age were eligible for enrollment if they met either of two criteria for increased cardiovascular risk, a prior cardiovascular event (secondary prevention) or clinical features that placed them at high risk for a cardiovascular event (primary prevention). (Nicholls S. Lincoff A M, Bays H E, et al. Rationale and design of the CLEAR-outcomes trial: Evaluating the effect of bempedoic acid on cardiovascular events in patients with statin intolerance. Am Heart J. 2021 May; 235:104-112) All patients provided written informed consent. Patients had to report statin intolerance due to an adverse effect that started or increased during statin therapy and resolved or improved after statin therapy was discontinued. Patients could be enrolled if they tolerated a very low average daily statin dose (e.g., an average daily dose of rosuvastatin <5 mg, atorvastatin <10 mg, simvastatin <10 mg, lovastatin <20 mg, pravastatin <40 mg, fluvastatin <40 mg, or pitavastatin <2 mg). Other lipid-lowering therapies were permitted, including ezetimibe, niacin, bile acid resins, fibrates, and/or proprotein convertase subtilisin kexin type 9 (PCSK9) inhibitors. Full inclusion and exclusion criteria are provided in Nicholls et al. (Am Heart J. 2021).
(§3) Eligible patients entered a 4-week run-in period during which patients were treated with single-blind placebo. If patients were intolerant to placebo treatment or if adherence was <80% by tablet count, they were not eligible for randomization. Patients who successfully completed the run-in period were randomly assigned in a 1:1 ratio to receive bempedoic acid at an oral dose of 180 mg or matching placebo, administered daily. Beginning 6 months after enrollment, the central laboratory notified the investigator if the patient's LDL-cholesterol level was ≥25% higher than baseline. These patients were counseled on healthy dietary guidelines and reminded to take all lipid-regulating medications. If repeat testing confirmed that LDL-cholesterol value met the threshold criteria, the provider could adjust the lipid-lowering treatment regimen per standard of care and local guidelines.

[2] = test system: statin-intolerant patients with or at high risk of CVD; type: in vivo
Description: as §1, §2, §3
The primary end point was the first occurrence of a composite of death from cardiovascular causes, nonfatal myocardial infarction (MI), nonfatal stroke, or coronary revascularization. The first key secondary end point was time to the first occurrence of the composite of cardiovascular death, nonfatal stroke, or MI. Further key secondary end points included time to first occurrence of each of the following outcomes tested in hierarchical order, fatal or nonfatal MI, coronary revascularization, fatal or nonfatal stroke, death from cardiovascular causes, and all-cause mortality.
This was an event-driven trial designed to provide at least 90% power to detect a 15% relative risk reduction for the primary composite end point at an overall two-sided significance level of 0.05. The trial required a minimum of 1620 primary composite events with ≥24 months of follow-up for all patients and at least 810 first key secondary end points. The average treatment duration was estimated to be 42 months and a lost-to-follow-up rate of 1% per year. Assuming a 3.59% annual event rate in the placebo group, enrollment of 12,600 patients was required, subsequently amended to 14,000. There were no interim efficacy analyses. A hierarchical approach was prespecified to evaluate sequentially each of the six key secondary efficacy end points with statistical significance at each step required to test the next hypothesis, thereby preserving the study-wise Type I error rate at 5%. All analyses were based on the intent-to-treat principle. […]

[3] = at any visit, repeated and confirmed, N = 7001
[4] = full population, 180 mg oral daily, N = 6992

Structure (SMILES): CC(C)(CCCCCC(O)CCCCCC(C)(C)C(=O)O)C(=O)O [Bempedoic Acid, Bempedoic acid]
- New onset diabetes in patients with normoglycemia at baseline, % ([1]; 180 mg oral daily): 5.5%
- New onset diabetes in patients with pre-diabetes at baseline, % ([1]; 180 mg oral daily): 19.5%
- Adjudicated tendon rupture, % ([1]; 180 mg oral daily, N = 7001): 1.2%
- Adverse event leading to drug discontinuation, % ([1]; 180 mg oral daily, N = 7001): 11.0%
- Any muscle disorder, % ([1]; 180 mg oral daily, N = 7001): 15.0%
- Any treatment emergent adverse event, % ([1]; 180 mg oral daily, N = 7001): 86.3%
- Atrial fibrillation, % ([1]; 180 mg oral daily, N = 7001): 3.3%
- Cholelithiasis, % ([1]; 180 mg oral daily, N = 7001): 2.2%
- Discontinuation of treatment due to myalgia, % ([1]; 180 mg oral daily, N = 7001): 1.8%
- Elevated hepatic enzymes, % ([1]; 180 mg oral daily, N = 7001): 4.5%
- Gout, % ([1]; 180 mg oral daily, N = 7001): 3.1%
- Hypoglycemia, % ([1]; 180 mg oral daily, N = 7001): 4.3%
- Malignancies, % ([1]; 180 mg oral daily, N = 7001): 4.7%
- Metabolic acidosis, % ([1]; 180 mg oral daily, N = 7001): 0.2%
- Myalgia, % ([1]; 180 mg oral daily, N = 7001): 5.6%
- Neurocognitive disorders, % ([1]; 180 mg oral daily, N = 7001): 0.8%
- Serious treatment emergent adverse event, % ([1]; 180 mg oral daily, N = 7001): 25.4%
- Tendinopathies, % ([1]; 180 mg oral daily, N = 7001): 1.7%
- Change from baseline in creatinine levels ([1]; after 6 months): 0.05 ± 0.2 mg/dL
- Change from baseline in uric acid levels ([1]; after 6 months): 0.76 ± 1.2 mg/dL
- Creatine kinase levels >5x ULN (repeated and confirmed), % ([1]; at any visit, N = 7001): 0.1%
- Creatine kinase levels >5x ULN (single occurrence), % ([1]; at any visit, N = 7001): 0.6%
- Alanine aminotransferase level >3 times ULN, % [1, 3]: 1.2%
- Aspartate aminotransferase level >3 times ULN, % [1, 3]: 1.1%
- Premature discontinuation of study drug ([1]; bempedoic acid-treated patients, full population): 29.1%
- Worsening hyperglycemia, % ([1]; in patients with diabetes at baseline): 22.7%
- New onset diabetes in patients without diabetes at baseline, % ([1]; investigator-reported, 180 mg oral daily): 16.1%
- tolerability of treatment ([1]; rates of discontinuation for any reason similar to placebo): well tolerated
- effect on other key secondary end points (time to first occurrence of stroke, death from cardiovascular causes, all-cause mortality) ([2]; compared with placebo, full population): no significant effects
- 3-component MACE, % of patients [2, 4]: (8.2) %
- Coronary revascularization, % of patients [2, 4]: (6.2) %
- Fatal and non-fatal MI, % of patients [2, 4]: (3.7) %
- Primary efficacy endpoint (MACE-4), % of patients [2, 4]: (11.7) %
- New-onset type 2 diabetes mellitus, Hazard Ratio ([2]; human, in vivo): 0.95
- reduction in risk of non-fatal myocardial infarction ([2]; vs placebo, 180 mg oral daily): about 27%
- 3-component MACE, Hazard Ratio ([2]; vs placebo, full population): 0.85
- 5 component MACE, Hazard Ratio ([2]; vs placebo, full population): 0.86
- All-cause mortality, nonfatal MI, nonfatal stroke, or coronary revascularization, Hazard Ratio ([2]; vs placebo, full population): 0.89
- Coronary revascularization, Hazard Ratio ([2]; vs placebo, full population): 0.81
- Fatal and non-fatal MI, Hazard Ratio ([2]; vs placebo, full population): 0.77
- Fatal and non-fatal stroke, Hazard Ratio ([2]; vs placebo, full population): 0.85
- Fatal and nonfatal non-hemorrhagic stroke, Hazard Ratio ([2]; vs placebo, full population): 0.78
- Hospitalization for unstable angina, Hazard Ratio ([2]; vs placebo, full population): 0.66
- Non-fatal MI, Hazard Ratio ([2]; vs placebo, full population): 0.73
- Non-fatal stroke, Hazard Ratio ([2]; vs placebo, full population): 0.82
- Primary efficacy endpoint (MACE-4), Hazard Ratio ([2]; vs placebo, full population): 0.87
